In ChEMBL document CHEMBL1201862, “PubChem BioAssay data set” (2004):
One block for each compound: values may come before it. The source made the active and inactive calls.

What was measured:
Paired box protein Pax-8 = Paired box protein Pax-8 (Homo sapiens, UniProt Q06710); test: PAX8 transcriptional activity inhibition in RMG-I – RMG-I cells, luciferase, cherry-pick, dose response (AID 687027); format: functional, cell-based;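 further: luciferase reporter driven by Pax8 target thyroperoxidase promoter measured by SteadyGlo luminescence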
Paired box protein Pax-8, sequence (Q06710 whole entry): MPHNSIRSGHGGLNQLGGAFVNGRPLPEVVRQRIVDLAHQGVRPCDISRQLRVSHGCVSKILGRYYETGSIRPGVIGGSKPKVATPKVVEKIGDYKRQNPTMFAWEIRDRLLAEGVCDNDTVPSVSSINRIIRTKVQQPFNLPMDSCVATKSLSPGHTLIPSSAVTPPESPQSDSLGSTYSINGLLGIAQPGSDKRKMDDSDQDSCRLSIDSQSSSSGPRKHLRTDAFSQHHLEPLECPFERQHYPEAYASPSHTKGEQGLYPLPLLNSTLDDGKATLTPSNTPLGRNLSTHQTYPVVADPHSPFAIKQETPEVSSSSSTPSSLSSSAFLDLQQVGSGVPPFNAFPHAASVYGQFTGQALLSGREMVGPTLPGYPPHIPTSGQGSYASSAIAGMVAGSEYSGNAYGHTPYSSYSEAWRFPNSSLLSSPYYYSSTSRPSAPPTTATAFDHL

[1] = OVCAR8 cell viability loss – plate reader, dry powder samples, PAX8 project, dose response (AID 743197); format: functional, cell-based; conditions: OVCAR-8
Mu-type opioid receptor = Mu-type opioid receptor (Homo sapiens, UniProt P35372); format: functional, cell-based;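 further: U2OS cells with beta-arrestin recruitment to OPRM1 by beta-gal complementation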
Mu-type opioid receptor, sequence (P35372 whole entry): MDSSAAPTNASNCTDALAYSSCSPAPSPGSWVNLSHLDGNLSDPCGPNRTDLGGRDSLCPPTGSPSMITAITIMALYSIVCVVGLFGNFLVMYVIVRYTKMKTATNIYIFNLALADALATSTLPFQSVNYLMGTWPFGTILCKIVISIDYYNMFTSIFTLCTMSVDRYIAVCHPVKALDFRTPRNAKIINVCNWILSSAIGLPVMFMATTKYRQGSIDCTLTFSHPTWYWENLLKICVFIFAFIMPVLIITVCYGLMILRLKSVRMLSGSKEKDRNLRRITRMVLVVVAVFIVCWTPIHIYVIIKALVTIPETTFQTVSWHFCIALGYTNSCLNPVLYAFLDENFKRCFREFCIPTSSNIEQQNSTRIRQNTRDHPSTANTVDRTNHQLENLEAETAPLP

[2] = molecular target: 5-hydroxytryptamine receptor 2A (Mus musculus, UniProt P35363); format: functional, cell-based;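 further: CHO-K1 cells with tagged receptor and beta-arrestin; agonist potency measured as compound-induced activation of the receptor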
5-hydroxytryptamine receptor 2A, sequence (P35363 whole entry, the tested form may be a part): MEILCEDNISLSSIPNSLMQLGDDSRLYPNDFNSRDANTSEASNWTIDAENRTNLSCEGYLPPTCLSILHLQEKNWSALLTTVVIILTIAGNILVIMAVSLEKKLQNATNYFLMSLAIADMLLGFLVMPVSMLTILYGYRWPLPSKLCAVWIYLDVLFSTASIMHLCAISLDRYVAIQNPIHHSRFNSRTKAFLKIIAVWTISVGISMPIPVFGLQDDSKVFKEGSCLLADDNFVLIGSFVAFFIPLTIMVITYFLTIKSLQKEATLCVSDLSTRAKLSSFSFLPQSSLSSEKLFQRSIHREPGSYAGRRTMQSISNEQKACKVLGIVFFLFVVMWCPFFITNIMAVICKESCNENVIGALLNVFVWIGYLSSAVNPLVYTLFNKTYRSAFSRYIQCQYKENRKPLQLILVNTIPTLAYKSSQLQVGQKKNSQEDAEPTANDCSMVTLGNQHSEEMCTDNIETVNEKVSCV

[3] = HIV-1 AD8 envelope cell-cell fusion blockers – cherry-pick, dose response (AID 652062); format: functional, cell-based;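 further: luciferase signal from cell-cell fusion driven by HIV-1 clade B AD8 Env; potency is for inhibitors of fusion seen as a drop in luminescence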
[4] = blockers of HIV-1 ZM109 envelope-driven cell-cell fusion – HeLa effector, CEM target cells, luciferase, cherry-pick, dose response (AID 652058); format: functional, cell-based;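 further: luciferase signal from HIV-1 Env mediated cell-cell fusion of effector and target cells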
[5] = HGIII-sPLA2 enzyme inhibition potency – biochemical, QFRET, IC50, dose response (AID 743457);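 further: green fluorescence rise as the enzyme cleaves BODIPY PC-A2 in liposomes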
[6] = molecular target: Heat shock protein HSP 90-alpha (Homo sapiens, UniProt P07900); format: functional, organism-based
Cytochrome P450 1A2 = molecular target: T1, Cytochrome P450 1A2 (Homo sapiens, UniProt P05177);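 further: PubChem cytochrome P450 panel assay, CYP1A2 panel member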
T1 sequence (P05177 whole entry): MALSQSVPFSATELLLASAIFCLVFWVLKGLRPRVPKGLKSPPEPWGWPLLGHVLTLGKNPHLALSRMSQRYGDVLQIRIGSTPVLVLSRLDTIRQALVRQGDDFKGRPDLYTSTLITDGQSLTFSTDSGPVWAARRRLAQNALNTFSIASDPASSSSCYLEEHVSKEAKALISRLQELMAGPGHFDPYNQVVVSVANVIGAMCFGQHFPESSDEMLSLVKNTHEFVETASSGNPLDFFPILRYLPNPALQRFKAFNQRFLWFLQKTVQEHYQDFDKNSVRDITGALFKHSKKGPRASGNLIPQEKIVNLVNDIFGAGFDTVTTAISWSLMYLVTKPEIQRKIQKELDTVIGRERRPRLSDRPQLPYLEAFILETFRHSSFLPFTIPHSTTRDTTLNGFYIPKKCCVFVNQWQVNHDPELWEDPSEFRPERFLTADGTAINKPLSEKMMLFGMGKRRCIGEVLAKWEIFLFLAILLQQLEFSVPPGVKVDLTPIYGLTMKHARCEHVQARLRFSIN

Cytochrome P450 2C9 = Cytochrome P450 2C9 (Homo sapiens, UniProt P11712)
Cytochrome P450 2C9, sequence (P11712 whole entry): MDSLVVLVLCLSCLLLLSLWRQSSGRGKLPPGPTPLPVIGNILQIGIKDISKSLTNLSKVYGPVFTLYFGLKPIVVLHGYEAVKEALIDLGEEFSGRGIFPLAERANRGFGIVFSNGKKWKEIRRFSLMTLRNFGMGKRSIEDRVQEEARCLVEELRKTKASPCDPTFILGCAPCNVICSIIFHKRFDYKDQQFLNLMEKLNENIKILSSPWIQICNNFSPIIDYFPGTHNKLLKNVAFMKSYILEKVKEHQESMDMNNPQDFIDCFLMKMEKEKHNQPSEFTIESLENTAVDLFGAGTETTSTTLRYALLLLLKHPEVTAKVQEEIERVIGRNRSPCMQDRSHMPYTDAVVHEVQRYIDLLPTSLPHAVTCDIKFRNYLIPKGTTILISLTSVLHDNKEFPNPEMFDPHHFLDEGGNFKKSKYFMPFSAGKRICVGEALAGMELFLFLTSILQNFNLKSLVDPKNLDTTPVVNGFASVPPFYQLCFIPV

Coagulation factor XII = molecular target: T2, Coagulation factor XII (Homo sapiens, UniProt P00748); format: functional;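 further: activated factor XIIa alpha cleaving a fluorogenic AMC peptide substrate; inhibitor potency from loss of enzyme activity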
T2 sequence (P00748 whole entry): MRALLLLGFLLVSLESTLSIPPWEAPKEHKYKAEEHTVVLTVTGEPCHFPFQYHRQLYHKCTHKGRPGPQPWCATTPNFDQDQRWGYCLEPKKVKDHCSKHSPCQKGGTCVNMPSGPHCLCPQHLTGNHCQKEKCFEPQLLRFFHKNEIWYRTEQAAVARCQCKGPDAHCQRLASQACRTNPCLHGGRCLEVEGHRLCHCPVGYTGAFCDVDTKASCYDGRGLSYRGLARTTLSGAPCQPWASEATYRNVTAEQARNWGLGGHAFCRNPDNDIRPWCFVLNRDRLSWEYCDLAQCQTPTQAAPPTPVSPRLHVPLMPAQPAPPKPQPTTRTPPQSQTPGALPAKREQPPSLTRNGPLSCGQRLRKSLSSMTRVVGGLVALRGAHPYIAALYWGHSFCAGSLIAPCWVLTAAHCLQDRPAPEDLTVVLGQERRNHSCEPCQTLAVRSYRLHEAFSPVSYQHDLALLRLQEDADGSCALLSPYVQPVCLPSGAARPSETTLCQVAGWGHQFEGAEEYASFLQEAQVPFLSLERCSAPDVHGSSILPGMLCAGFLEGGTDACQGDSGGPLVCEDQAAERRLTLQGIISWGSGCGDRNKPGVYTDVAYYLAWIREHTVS

[7] = off-target signal loss in HeLa-CEM21 co-culture – HeLa F-luc CTL cells, cherry-picked, counter-screen for HIV-1 Env fusion inhibitor project, dose response (AID 652040); format: functional, cell-based;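 further: potency for signal decrease marking cytotoxic or nonspecific inhibition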
[8] = blockers of HIV-1 envelope-mediated cell-cell fusion – cherry-pick, dose response (AID 652057); format: functional, cell-based

- EC50 (Mu-type opioid receptor): 92.5 µM (inactive)
- EC50 [2]: 5.91 µM (active)
SMILES: O=C(c1ccco1)N1CCN(Cc2ccccc2Br)CC1

- IC50 [5]: > 122 µM (inactive)
SMILES: Cc1cc(N2CCCC2)ccc1NC(=O)COc1cccc(C(F)(F)F)c1

- AC50 [6]: 25.5 µM (active)
SMILES: O=C1C2C3C=CC(CNS(=O)(=O)c4ccccc4[N+](=O)[O-])(O3)C2C(=O)N1c1ccccc1 (stereo unspecified)

- AC50 (Cytochrome P450 1A2): 1.41 µM (inconclusive)
- AC50 (Cytochrome P450 2C9): inconclusive
SMILES: Cc1ccc(-n2cc(C(=O)c3ccc4ccccc4c3O)cn2)cc1

- EC50 (Mu-type opioid receptor): 92.4 µM (inactive)
- EC50 [2]: 1.16 µM (active)
- IC50 (Coagulation factor XII): > 50 µM (inactive)
SMILES: CC(=O)N1CCC(N2CCN(c3ccccc3F)CC2)CC1

- EC50 (Mu-type opioid receptor): 92.5 µM (inactive)
- EC50 [2]: 0.106 µM (active)
SMILES: Oc1cc2c(cc1CN1CCN(c3ncccn3)CC1)OCO2

The remaining lines, values behind:

SMILES: C[C@@H]1CCCCO[C@H](CN(C)Cc2ccc(C(F)(F)F)cc2)[C@H](C)CN([C@H](C)CO)C(=O)c2cc(NS(=O)(=O)c3ccccc3)ccc2O1
- AC50 (Paired box protein Pax-8): 6.88 µM (active)
- AC50 [1]: > 70 µM (inactive)

SMILES: O=C(CN1CCN(Cc2ccc(Cl)cc2)C1=O)NCCCN1CCN(c2ccc(F)cc2)CC1
- AC50 [3]: 27.3 µM (active)
- AC50 [4]: 36 µM (active)

SMILES: C[C@H]1CCCCO[C@@H](CN(C)Cc2ccncc2)[C@@H](C)CN([C@@H](C)CO)C(=O)c2cc(NC(=O)Nc3ccc(C(F)(F)F)cc3)ccc2O1
- AC50 (Paired box protein Pax-8): 7.3 µM (active)
- AC50 [1]: > 70 µM (inactive)

SMILES: C[C@@]12C(=O)N(Cc3ccccc3)CC(=O)N1[C@H]1c3ccccc3OC[C@@H]1[C@@H]2c1ccccc1
- AC50 [7]: 2.27 µM (active)
- AC50 [8]: 1.65 µM (active)
- AC50 [3]: 6.27 µM (active)
- AC50 [4]: 1.68 µM (active)
